According to US20260042755A1, “GPR6 INVERSE AGONISTS” (MapLight Therapeutics, Inc., priority 2022, published 2026):

Assays:
[1] = target: T1, GPR6 (Homo sapiens, UniProt P46095); test: GPR6 antagonist functional cAMP assay (LANCE Ultra cAMP TR-FRET, CHO cells stably expressing GPR6); assay type: cell-based
T1 construct: expressed in transfected cells; host or cells: CHO cells
Outline: (§1)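 Suspended cells were plated at 10,000 per well in Krebs-Ringer bicarbonate buffer containing 0.1% BSA and 150 μM Ro 20-1724, then treated with compounds for 45 min at 37 °C. Intracellular cAMP was then quantified by TR-FRET immunoassay.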

[2] = target: T2, GPR3 (Homo sapiens, UniProt P46089); test: GPR3 antagonist functional cAMP assay (LANCE Ultra cAMP TR-FRET, CHO cells stably expressing GPR3); assay type: cell-based
T2 construct: expressed in transfected cells; host or cells: CHO cells
Outline: as §1

[3] = CHO cells stably expressing GPR6, cAMP assay (Example 24)
[4] = CHO cells stably expressing GPR3, cAMP assay (Example 24)
[5] = procedure as described in Example 24

T2 sequence (P46089 whole entry, species assumed): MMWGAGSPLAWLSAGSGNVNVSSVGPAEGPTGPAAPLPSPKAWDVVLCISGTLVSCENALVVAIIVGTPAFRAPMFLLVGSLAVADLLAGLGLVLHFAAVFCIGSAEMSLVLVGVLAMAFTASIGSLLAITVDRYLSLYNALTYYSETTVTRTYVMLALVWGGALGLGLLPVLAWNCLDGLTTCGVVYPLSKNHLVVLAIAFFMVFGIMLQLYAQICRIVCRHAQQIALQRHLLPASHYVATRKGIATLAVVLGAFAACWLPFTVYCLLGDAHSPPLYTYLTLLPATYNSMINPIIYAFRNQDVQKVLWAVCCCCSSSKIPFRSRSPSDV
T1 sequence (P46095 whole entry): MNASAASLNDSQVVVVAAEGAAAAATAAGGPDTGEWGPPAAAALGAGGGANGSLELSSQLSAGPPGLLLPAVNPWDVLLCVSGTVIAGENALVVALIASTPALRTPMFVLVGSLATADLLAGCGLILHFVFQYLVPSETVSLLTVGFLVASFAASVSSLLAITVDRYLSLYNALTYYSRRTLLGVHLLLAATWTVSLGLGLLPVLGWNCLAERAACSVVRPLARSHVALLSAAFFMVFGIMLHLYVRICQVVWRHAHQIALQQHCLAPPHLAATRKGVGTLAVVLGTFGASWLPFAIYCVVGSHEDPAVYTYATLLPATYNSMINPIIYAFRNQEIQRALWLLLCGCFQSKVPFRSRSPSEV

SMILES	IC50 [1, 3]	IC50 [2, 4]	further results
CC(=O)N1CCc2nc(N3CCC(Oc4ccc(F)cc4F)CC3)c(-c3cnn(C)c3)nc2C1 [Compound 44, 1-{2-[4-(2,4-difluorophenoxy)piperidin-1-yl]-3-(1-methyl-1H-pyrazol-4-yl)-5H,6H,7H,8H-pyrido[3,4-b]pyrazin-6-yl}ethan-1-one]			IC50 [1, 5]: 100 to 1000 nM; IC50 [2, 5]: 1000 to 30000 nM
CC(C)(O)[C@@H](O)c1cc2nc(-c3cnn(C(F)F)c3)c(N3CCN(Cc4ccccc4F)CC3)nc2cn1 (single isomer, unassigned) [Compound 686]			IC50 ([1]; procedure of Example 24): < 100 nM; IC50 ([2]; procedure of Example 24): 100 to 1000 nM
Cn1cc(-c2nc3cc(C(C)(O)C(C)(C)O)ncc3nc2N2CCN(Cc3ccc(F)cc3F)CC2)cn1 (centres unmarked) [Compound 604, 2-(3-{4-[(2,4-difluorophenyl)methyl]-1-piperazinyl}-2-(1-methyl-4-pyrazolyl)-1,4,6-triaza-7-naphthyl)-3-methyl-2,3-butanediol]			IC50 ([1]; CHO cells stably expressing GPR6, cAMP assay): 100 to 1000 nM; IC50 ([2]; CHO cells stably expressing GPR3, cAMP assay): 1000 to 30000 nM
CC(=O)N1CCc2nc(N3CCC(C(C)c4ccc(F)cc4F)CC3)c(-c3cnn(C)c3)nc2C1 (centres unmarked) [Compound 790, 1-(2-{4-[1-(2,4-difluorophenyl)ethyl]-1-piperidyl}-3-(1-methyl-4-pyrazolyl)-5,6,7,8-tetrahydro-1,4,6-triaza-6-naphthyl)-1-ethanone]			IC50 ([1]; procedure of Example 24): 100 to 1000 nM; IC50 ([2]; procedure of Example 24): 1000 to 30000 nM
CC(=O)N1CCc2nc(N3CCN(C(=O)c4ccc(F)cc4Cl)CC3)c(-c3cnn(C)c3)nc2C1 [Compound 253, 1-{2-[4-(2-chloro-4-fluorobenzoyl)piperazin-1-yl]-3-(1-methyl-1H-pyrazol-4-yl)-5H,6H,7H,8H-pyrido[3,4-b]pyrazin-6-yl}ethan-1-one]	1000 to 30000 nM	1000 to 30000 nM	
O=C(O)c1cc2nc(-c3cnn(CF)c3)c(N3CCN(Cc4ccc(F)cc4F)CC3)nc2cn1 [Compound 765, 3-{4-[(2,4-difluorophenyl)methyl]-1-piperazinyl}-2-[1-(fluoromethyl)-4-pyrazolyl]-1,4,6-triaza-7-naphthoic acid]			IC50 ([1]; procedure of Example 24): 1000 to 30000 nM; IC50 ([2]; procedure of Example 24): 1000 to 30000 nM
COc1cccc(-c2nc3c(nc2N2CCC(Oc4ccc(F)cc4F)CC2)CCN(S(C)(=O)=O)C3)n1 [Compound 59, 2-(4-(2,4-difluorophenoxy)piperidin-1-yl)-3-(6-methoxypyridin-2-yl)-6-(methylsulfonyl)-5,6,7,8-tetrahydropyrido[3,4-b]pyrazine]	1000 to 30000 nM	1000 to 30000 nM	
CC(C)(O)[C@H](O)c1cc2nc(N3CCN(Cc4ccc(F)cc4F)CC3)c(-c3cnn(C(F)F)c3)nc2cn1 (single isomer, unassigned) [Compound 396]	100 to 1000 nM	1000 to 30000 nM	
CC(=O)N1CCc2nc(N3CCC(Oc4ccc(F)cc4F)CC3)c(-c3ccncn3)nc2C1 [Compound 13, 1-{2-[4-(2,4-difluorophenoxy)piperidin-1-yl]-3-(pyrimidin-4-yl)-5H,6H,7H,8H-pyrido[3,4-b]pyrazin-6-yl}ethan-1-one]			IC50 [1, 5]: 1000 to 30000 nM; IC50 [2, 5]: 100 to 1000 nM
CN1CCc2nc(N3CCC(Oc4ccc(F)cc4F)CC3)c(-c3cn[nH]c3)nc2C1 [Compound 139, 4-(2,4-difluorophenoxy)-1-[6-methyl-3-(1H-pyrazol-4-yl)-5H,6H,7H,8H-pyrido[3,4-b]pyrazin-2-yl]piperidine]	1000 to 30000 nM	1000 to 30000 nM	
COc1ncc(-c2nc3c(nc2N2CCC(Oc4ccc(F)cc4F)CC2)CCN(C(C)=O)C3)cc1F [Compound 160, 1-{2-[4-(2,4-difluorophenoxy)piperidin-1-yl]-3-(5-fluoro-6-methoxypyridin-3-yl)-5H,6H,7H,8H-pyrido[3,4-b]pyrazin-6-yl}ethan-1-one]	100 to 1000 nM	1000 to 30000 nM	
CC(C)(O)C(O)c1ncc2nc(-c3cnn(CF)c3)c(N3CCN(Cc4ccc(F)cc4F)CC3)nc2c1F (racemic) [Compound 797, 1-(2-{4-[(2,4-difluorophenyl)methyl]-1-piperazinyl}-8-fluoro-3-[1-(fluoromethyl)-4-pyrazolyl]-1,4,6-triaza-7-naphthyl)-2-methyl-1,2-propanediol]			IC50 ([1]; procedure of Example 24): 100 to 1000 nM; IC50 ([2]; procedure of Example 24): 1000 to 30000 nM
Cn1cc(-c2nc3cnc(C4CC4CO)cc3nc2N2CCC(Oc3ccc(F)cc3F)CC2)cn1 (centres unmarked) [Compound 768, (2-{2-[4-(2,4-difluorophenoxy)-1-piperidyl]-3-(1-methyl-4-pyrazolyl)-1,4,6-triaza-7-naphthyl}cyclopropyl)methanol]			IC50 ([1]; procedure of Example 24): 1000 to 30000 nM; IC50 ([2]; procedure of Example 24): 1000 to 30000 nM
Cn1cc(-c2nc3cnc([C@H](O)C(C)(C)O)cc3nc2N2CCC(Oc3ccc(F)cc3F)CC2)cn1 (single isomer, unassigned) [Compound 378, (Rel-S)-1-(2-(4-(2,4-difluorophenoxy)piperidin-1-yl)-3-(1-methyl-1H-pyrazol-4-yl)pyrido[3,4-b]pyrazin-7-yl)-2-methylpropane-1,2-diol]	100 to 1000 nM	1000 to 30000 nM	
Cn1cc(-c2nc3cnc([C@](C)(O)C(C)(C)O)cc3nc2N2CCC(Oc3ccc(F)cc3F)CC2)cn1 (single isomer, unassigned) [Compound 673]			IC50 ([1]; procedure of Example 24): 100 to 1000 nM; IC50 ([2]; procedure of Example 24): 1000 to 30000 nM

Continued, in another order:

IC50 [1, 3]	IC50 [2, 4]	SMILES	further results
1000 to 30000 nM	1000 to 30000 nM	CC(=O)N1CCc2nc(N3CCC(Oc4ccc(F)cc4F)CC3)c(-c3cc[nH]c(=O)c3)nc2C1 [Compound 66, 4-{6-acetyl-2-[4-(2,4-difluorophenoxy)piperidin-1-yl]-5H,6H,7H,8H-pyrido[3,4-b]pyrazin-3-yl}-1,2-dihydropyridin-2-one]	
1000 to 30000 nM	1000 to 30000 nM	CC(=O)N1CCc2nc(N3CCC(Oc4ccc(F)cc4F)CC3)c(-c3cnn(C4CS(=O)(=O)C4)c3)nc2C1 [Compound 82, 3-(4-{6-acetyl-2-[4-(2,4-difluorophenoxy)piperidin-1-yl]-5H,6H,7H,8H-pyrido[3,4-b]pyrazin-3-yl}-1H-pyrazol-1-yl)-1λ^6-thietane-1,1-dione]	
1000 to 30000 nM	1000 to 30000 nM	O=S1(=Nc2ccc(F)cc2F)CCN(c2nc3ccncc3nc2-c2cn[nH]c2)CC1 [Compound 58, 4-(3-(1H-pyrazol-4-yl)pyrido[3,4-b]pyrazin-2-yl)-1-((2,4-difluorophenyl)imino)-1l6-thiomorpholine 1-oxide]	
100 to 1000 nM	1000 to 30000 nM	CC(=O)N1Cc2nc(-c3cnn(C)c3)c(N3CCC(Oc4ccc(F)cc4F)CC3)nc2CC1C (single isomer, unassigned) [Compound 446]	
1000 to 30000 nM	1000 to 30000 nM	COc1ncccc1-c1nc2c(nc1N1CCC(Oc3ccc(F)cc3F)CC1)CCN(C(C)=O)C2 [Compound 112, 1-{2-[4-(2,4-difluorophenoxy)piperidin-1-yl]-3-(2-methoxypyridin-3-yl)-5H,6H,7H,8H-pyrido[3,4-b]pyrazin-6-yl}ethan-1-one]	
100 to 1000 nM	1000 to 30000 nM	CC(C)(O)C(O)c1cc2nc(N3CCC(Oc4ccc(F)cc4F)CC3)c(-c3cnn(C(F)F)c3)nc2cn1 (centres unmarked) [Compound 407, 1-{3-[1-(difluoromethyl)-4-pyrazolyl]-2-[4-(2,4-difluorophenoxy)-1-piperidyl]-1,4,6-triaza-7-naphthyl}-2-methyl-1,2-propanediol]	
100 to 1000 nM	1000 to 30000 nM	O=C(C1COC1)N1CCc2nc(N3CCC(Oc4ccc(F)cc4F)CC3)c(-c3cnn(C4CCCCO4)c3)nc2C1 (centres unmarked) [Compound 172, 4-(2,4-difluorophenoxy)-1-{3-[1-(oxan-2-yl)-1H-pyrazol-4-yl]-6-(oxetane-3-carbonyl)-5H,6H,7H,8H-pyrido[3,4-b]pyrazin-2-yl}piperidine]	
